Experimental data taken from the NIST ThermoML archive (doi:10.1016/j.jct.2007.11.010).

Assay: xn = mol fraction of the nth substance listed
Conditions: 101 kPa, Liquid

OCCN1CCOCC1 [4-morpholineethanol] + CC(C)O
mass density [kg/m3]
Conditions	293.15 K	298.15 K	303.15 K	313.15 K	323.15 K
x1 = 0.0543	810.11	806.22	801.63	792.98	784.44
x1 = 0.1127	835.5	831.48	826.84	818.19	809.79
x1 = 0.1873	865.79	861.61	856.92	848.29	840.07
x1 = 0.2468	888.39	884.1	879.38	870.77	862.71
x1 = 0.2874	903.13	898.77	894.03	885.45	877.5
x1 = 0.3248	916.03	911.6	906.84	898.29	890.46
x1 = 0.3873	936.59	932.06	927.29	918.79	911.14
x1 = 0.4267	948.75	944.16	939.38	930.92	923.4
x1 = 0.4882	967	962.32	957.53	949.14	941.81
x1 = 0.5237	976.91	972.17	967.38	959.03	951.82
x1 = 0.5894	994.19	989.37	984.57	976.32	969.32
x1 = 0.6422	1007.31	1002.43	997.63	989.46	982.63
x1 = 0.6899	1018.36	1013.43	1008.64	1000.53	993.87
x1 = 0.7439	1030.26	1025.27	1020.49	1012.47	1005.99
x1 = 0.7855	1038.88	1033.86	1029.09	1021.13	1014.79
x1 = 0.8238	1046.42	1041.36	1036.59	1028.7	1022.49
x1 = 0.8841	1057.54	1052.43	1047.69	1039.9	1033.9
x1 = 0.9247	1064.51	1059.37	1054.64	1046.93	1041.06
x1 = 0.9544	1069.21	1064.05	1059.33	1051.68	1045.92
x1 = 0.9844	1074.11	1068.93	1064.23	1056.62	1050.96
